Active and inactive are the calls of the source.
Columns and labels:
Format in all cases: functional, organism-based
[1] = tested on: Mycobacterium tuberculosis; test: Antimicrobial activity against isoniazid-resistant Mycobacterium tuberculosis ATCC 35822 after 2 to 3 weeks
[2] = tested on: Mycobacterium tuberculosis; test: Antimicrobial activity against streptomycin-resistant Mycobacterium tuberculosis ATCC 35820 after 2 to 3 weeks
[3] = tested on: Mycobacterium tuberculosis; test: Antimicrobial activity against ethionamide-resistant Mycobacterium tuberculosis 1700 after 2 to 3 weeks
[4] = tested on: Mycobacterium tuberculosis; test: Antimicrobial activity against rifampicin-resistant Mycobacterium tuberculosis 19000 after 2 to 3 weeks

Measured: Activity

NC(=O)c1cccnc1OCc1ncc(-c2ccc(OCCCF)cc2Cl)cn1
active: all assays above

COCCOc1ccc(-c2ccc(COc3ncccc3C(N)=O)nc2)c(C)c1
active: all assays above

CC(C)OCCOc1ccc(-c2cnc(COc3ncccc3C(N)=O)nc2)c(Cl)c1
active: all assays above

Reference: ChEMBL document CHEMBL3286119, “Biarylmethoxy Nicotinamides As Novel and Specific Inhibitors of Mycobacterium tuberculosis” (ACS Med Chem Lett, 2014)
